Data from EP0590563A1, “Biotin amides, a process for their preparation and therapeutical compositions containing them as the active principles for the treatment of diabetes and relative complicating diseases” (LIFEGROUP S.p.A., priority 1992, dated 1994).
Read-outs that look alike come from different tables or passages of the source. Blank lines part the entries; values can stand above or below the compound they belong to.

Key:
[1] = solubility in organic solvents; type: physicochemical; conditions: organic solvent or mixture
solubility in water = type: physicochemical; conditions: for solubility in water: result in words
[2] = test system: diabetes induced by streptozotocin; experiment: Experimental diabetes induced by streptozotocin; type: in vivo, male Wistar rats; conditions: for AcAc: Aceto Acetate
Procedure: The derivatives are then tested in order to define their biologic activity in experimental conditions of hyperglycemia induced both by food absence and by diabetes induced by streptozotocin. Hepatic glucokinase activity is examined in the experimental condition of food absence. Glycemia, insulinemia and the levels of Aceto Acetate (Ac.Ac.) are examined in the diabetes induced by streptozotocin.
10 male Wistar rats (200 g) are divided into 4 groups, the first group is composed by the controls, to the remaining groups streptozotocin is injected by intraperitoneal route (80 mg/kg). The third group is furthermore treated with biotin (3 mg/kg) by intraperitoneal route, and the fourth group with biotinyl ethanolamide (3 mg/kg) again by intraperitoneal route. The treatment is repeated for three days, then a blood sample is taken for analysis on the fifth day from the initial treatment.

hepatic glucokinase [3] = experiment: Ex vivo hepatic glucokinasic activity, Experiment A; type: in vivo, Wistar rats; conditions: for Glucokinasic activity: 3 mg/kg i.p. after 24 hours without food, sacrifice after 6 hours, mean ± stan. deviation
Procedure: This experiment is carried out following to Chauhan et al. process (J. Biol. Chem. 266, 10035, 1991), according to this process, hepatic glucokinase in the rat, which activity is depressed by food absence is reactivated by the biotin action. 15 Wistar rats weighing on average 250 g are divided into three groups, the first one represent the controls, the second one is treated by intraperitoneal route with biotin (3 mg/kg) and the third group with biotinylethanolamine (3 mg/kg) again by intraperitoneal route. Rats are treated after 24 hours without food and after 6 hours are sacrificed by decapitation. Livers are homogenized in 5 volumes 50 mM Tris at pH 7, 0.15 M KCl, 5 mM EGTA, 4 mM MgCl₂, and 2 mM dithiothreitol and centrifugated at 100.000 x g for 60 minutes. The surnatant, frozen to -80 °C, is used for the analyses, after identifying proteins according to Bradford method (Anal. Biochem. 72, 248, 1976). Glucokinase is dosed by spectrophotometry according to Dakshinamurti et al. (Can. J. Biochem. 46, 75, 1968) with the following results: […]

hepatic glucokinase [4] = experiment: Ex vivo hepatic glucokinasic activity, Experiment B; type: in vivo, Sprague Dawley rat; conditions: 2 mg/kg i.p., rats without food for 24 hours, 3 hours after the treatment
Procedure: Also this experiment, like the previous one, is carried out by following Chauhan et al. process (J. Biol. Chem. 266, 10035, 1991), according to this process, hepatic glucokinase in the rat, which activity is depressed by food absence and it is reactivated by the biotin action.
Sprague Dawley rat weighing on average 260 g left without food for 24 hours, are divided into 15 groups, each of 13 groups are respectively intraperitoneally treated with 2 mg/kg of one of the compounds of the present invention hereinbelow reported in Table 1 or with the same dosage of biotin, all these substances being previously dissolved in physiological solutions. The obtained results are compared with those of the two groups corresponding to normal rats feeded ad libitum and with untreated rats left without food for 24 hours, all the animals had free admission to water.
3 hours after the treatment the rats are sacrificed by cerebral displacement. […] The homogenates are centrifugated at 100.000 x g for 60 minutes.Their proteic concentration is determined according to the above mentioned Bradford method (Anal. Biochem. 72, 248, 1976).
Glucokinase activity is evaluated according to Dakshinamurti et al. (Can. J. Biochem. 46, 75, 1968), and expressed as arbitrary units /proteic concentration of the samples.

[5] = background statement, in words; cited from earlier work
diabetic patients = conditions: 16mg/die for 1 week, insulin treatment interrupted; cited from earlier work
[6] = test system: genetically diabetic mice KK; conditions: 2mg/kg for 14 days; cited from earlier work
neuropathy = conditions: intramuscular for 6 weeks, with oral daily dose of 5 mg for about 2 years; cited from earlier work
[7] = aqueous buffer, in 0.1M phosphate buffer at pH 7.4
[8] = streptozotocin 80 mg/kg i.p., test substance 3 mg/kg i.p. for three days, blood sample on the fifth day
[9] = result in words, 3 mg/kg i.p., streptozotocin rats

SMILES: O=C(CCCC[C@@H]1SC[C@@H]2NC(=O)N[C@@H]21)NCCNC(=O)CCCC[C@@H]1SC[C@@H]2NC(=O)N[C@@H]21 [Example 6, N,N'bis-(β-biotinyl)-ethylendiamine]
solubility ([1]; in hot DMSO): > 2000 µg/mL
solubility in water (solubility in water; water): poorly soluble

SMILES: O=C(CCCC[C@@H]1SC[C@@H]2NC(=O)N[C@@H]21)NCCCCO [Example 5, N-β-biotinyl-4-amino-butanol]
solubility ([1]; in DMSO): > 10000 µg/mL
solubility (solubility in water; water): > 5000 µg/mL

SMILES: O=C(CCCC[C@@H]1SC[C@@H]2NC(=O)N[C@@H]21)NCCO [Example 1, N-β-biotinyl-ethanolamine]
solubility ([1]; in DMSO): > 10000 µg/mL
solubility (solubility in water; water): > 10000 µg/mL
AcAc [2, 8]: 0 nmol/L
Glycemia [2, 9]: normalized
insulinemia [2, 9]: active
Glycemia [2, 8]: 6.0 ± 0.5 mmol/L
insulinemia [2, 8]: 23.5 ± 1.8 mU/l
Glucokinasic activity (hepatic glucokinase [3]): 4.27 ± 0.45 U./min/protein mg
Glucokinasic activity compared with biotin (hepatic glucokinase [3]; result in words, after 6 hours, 3 mg/kg i.p.): more active than biotin

SMILES: O=C(O)CCCC[C@@H]1SC[C@@H]2NC(=O)N[C@@H]21 [Biotin, biotin]
AcAc [2, 8]: 0 nmol/L
Glycemia [2, 9]: normalized
insulinemia [2, 9]: active
Glycemia [2, 8]: 7.4 ± 0.9 mmol/L
insulinemia [2, 8]: 25.1 ± 1.5 mU/l
Glucokinasic activity (hepatic glucokinase [3]): 3.96 ± 0.70 U./min/protein mg
glucokinase activity (hepatic glucokinase [4]): 3.662± 0.280 UA/mg proteins
solubility in water [5]: poorly soluble in water
hematic glucose rate (diabetic patients): significant reduction
glucose tolerance [6]: improved sensibly
conduction velocity at the level of the motor nerves and of the action sensory potentials (neuropathy): slight improvement
subjective neurologic symptoms (neuropathy): marked improvement

SMILES: O=C1N[C@H]2[C@H](CS[C@H]2CCCCC(=O)N2CCN(CCO)CC2)N1 [Example 3, N¹-β-biotinyl-N⁴-(2-hydroxyethyl) piperazine hydrochlorate]
solubility ([1]; in DMSO): > 10000 µg/mL
solubility (solubility in water; water): > 10000 µg/mL

SMILES: CN=C(N)NCCC[C@H](NC(=O)CCCC[C@@H]1SC[C@@H]2NC(=O)N[C@@H]21)C(=O)O [Example 2, N-β-biotinyl-N^G-methyl-L-arginine]
solubility ([1]; in DMSO): > 10000 µg/mL
solubility (solubility in water; water): > 10000 µg/mL

SMILES: O=C(CCCC[C@@H]1SC[C@@H]2NC(=O)N[C@@H]21)NCc1ccccc1 [Example 4, N-β-biotinyl-benzylamine]
solubility ([1]; in DMSO): > 10000 µg/mL
solubility ([1]; in ethanol): > 10000 µg/mL
solubility in water (solubility in water; water): poorly soluble

Further lines, results first:

solubility ([1]; in DMSO): > 10000 µg/mL
solubility (solubility in water; [7]): > 10000 µg/mL
SMILES: O=C(CCCC[C@@H]1SC[C@@H]2NC(=O)N[C@@H]21)N[C@@H](CS)C(=O)O [Example 12, N-β-biotinyl-L-cysteine]

solubility ([1]; in DMSO): > 10000 µg/mL
solubility in water (solubility in water; water): poorly soluble
SMILES: CCCCNC(=O)CCCC[C@@H]1SC[C@@H]2NC(=O)N[C@@H]21 [Example 8, N-β-biotinyl-1-aminobutane]

solubility ([1]; in DMSO): > 10000 µg/mL
solubility in water (solubility in water; water): poorly soluble
SMILES: O=C(CCCC[C@@H]1SC[C@@H]2NC(=O)N[C@@H]21)NC1CCCCC1 [Example 9, N-β-biotinyl-aminocyclohexane]

solubility ([1]; in DMSO): > 10000 µg/mL
solubility in water (solubility in water; water): poorly soluble
SMILES: O=C(CCCC[C@@H]1SC[C@@H]2NC(=O)N[C@@H]21)NCc1ccc([N+](=O)[O-])cc1 [Example 10, N-β-biotinyl-4-nitrobenzylamine]

solubility ([1]; in DMSO): > 10000 µg/mL
solubility (solubility in water; water): > 10000 µg/mL
SMILES: N=C(N)NCCC[C@H](NC(=O)CCCC[C@@H]1SC[C@@H]2NC(=O)N[C@@H]21)C(=O)O [Example 11, N-β-biotinyl-L-arginine]

solubility ([1]; in DMSO): > 10000 µg/mL
solubility (solubility in water; [7]): > 10000 µg/mL
SMILES: O=C(CCCC[C@@H]1SC[C@@H]2NC(=O)N[C@@H]21)N[C@@H](CO)C(=O)O [Example 7, N-β-biotinyl-L-serine]
